Test results: ChEMBL document CHEMBL1201862, “PubChem BioAssay data set” (2004)
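The compound was tested at five concentrations on cells cultured in 96-well plates, with a 48-hour exposure period. GI50 marks 50% less growth.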 The source made the active and inactive calls. No stated cut-off is given here; in the data, active = GI50 up to about 1.1 µM and inactive = higher. Peptide text beside a SMILES is read from it. * marks the point of attachment. Boc = CC(C)(C)OC(=O)*; OBn = c1ccc(CO*)cc1

How the values were obtained:
Test in all cases: growth of human tumour cells (NCI), 48 h
SK-MEL-28 = tested on: SK-MEL-28
COLO 205 = tested on: COLO 205
HCC 2998 = tested on: HCC 2998
OVCAR-8 = tested on: OVCAR-8
HCT-15 = tested on: HCT-15
SF-295 = tested on: SF-295
T47D = tested on: T47D
OVCAR-4 = tested on: OVCAR-4
IGROV-1 = tested on: IGROV-1
RXF 393 = tested on: RXF 393
Hs-578T = tested on: Hs-578T
SF-268 = tested on: SF-268
SK-MEL-5 = tested on: SK-MEL-5
OVCAR-5 = tested on: OVCAR-5
DU-145 = tested on: DU-145
MDA-N = tested on: MDA-N
NCI-H23 = tested on: NCI-H23
MDA-MB-435 = tested on: MDA-MB-435
786-0 = tested on: 786-0
LOX IMVI = tested on: LOX IMVI
NCI-H522 = tested on: NCI-H522
A498 = tested on: A498
UACC-257 = tested on: UACC-257
UO-31 = tested on: UO-31
UACC-62 = tested on: UACC-62
SK-MEL-2 = tested on: SK-MEL-2
KM12 = tested on: KM12
RPMI-8226 = tested on: RPMI-8226
MOLT-4 = tested on: MOLT-4
SF-539 = tested on: SF-539
MDA-MB-231 = tested on: MDA-MB-231
SNB-19 = tested on: SNB-19
OVCAR-3 = tested on: OVCAR-3
K562 = tested on: K562
HL-60 = tested on: HL-60
NCI-H226 = tested on: NCI-H226
NCI/ADR-RES = tested on: NCI/ADR-RES
NCI-H460 = tested on: NCI-H460
TK-10 = tested on: TK-10
SNB-75 = tested on: SNB-75
ACHN = tested on: ACHN
SW-620 = tested on: SW-620
EKVX = tested on: EKVX
HOP-62 = tested on: HOP-62
SK-OV-3 = tested on: SK-OV-3
HCT-116 = tested on: HCT-116
PC-3 = tested on: PC-3
SN12C = tested on: SN12C
HT-29 = tested on: HT-29
MCF7 = tested on: MCF7
U-251 = tested on: U-251
CCRF-CEM = tested on: CCRF-CEM
A549 = tested on: A549
M14 = tested on: M14
Malme-3M = tested on: Malme-3M
HOP-92 = tested on: HOP-92
CAKI-1 = tested on: CAKI-1
SR = tested on: SR

Measured: GI50

CN1N=C(c2ccncc2)OC1c1ccc(Cl)cc1Cl (stereo not given)
> 100 µM: HCT-15
inactive: SK-MEL-28 > 100 µM | COLO 205 36.1 µM | HCC 2998 > 100 µM | OVCAR-8 > 100 µM | SF-295 66.2 µM | T47D 60.3 µM | OVCAR-4 43.6 µM | IGROV-1 > 100 µM | RXF 393 > 100 µM | Hs-578T > 100 µM | SF-268 > 100 µM | SK-MEL-5 65.6 µM | OVCAR-5 > 100 µM | DU-145 > 100 µM | MDA-N > 100 µM | NCI-H23 > 100 µM | MDA-MB-435 63.7 µM | 786-0 97.7 µM | LOX IMVI > 100 µM | NCI-H522 72.6 µM | A498 49.9 µM | UACC-257 > 100 µM | UO-31 93.5 µM | UACC-62 22.8 µM | SK-MEL-2 > 100 µM | KM12 > 100 µM | RPMI-8226 72.8 µM | MOLT-4 42 µM | SF-539 44.5 µM | MDA-MB-231 87.9 µM | SNB-19 > 100 µM | OVCAR-3 64.3 µM | K562 50.5 µM | HL-60 41.2 µM | NCI-H226 29.2 µM | NCI/ADR-RES 71.8 µM | NCI-H460 > 100 µM | TK-10 > 100 µM | SNB-75 12.6 µM | ACHN 74.6 µM | SW-620 > 100 µM | EKVX 41.7 µM | HOP-62 > 100 µM | SK-OV-3 93.3 µM | HCT-116 93.1 µM | PC-3 63.1 µM | SN12C 75.3 µM | HT-29 59.2 µM | MCF7 > 100 µM | U-251 > 100 µM | CCRF-CEM 48.6 µM | A549 > 100 µM | M14 95.3 µM

CCC1C(=O)C[C@H]2[C@@H]3C(O)CC4=CC(=O)CC[C@]4(C)[C@H]3CC[C@]12C (stereo not given in full)
> 50 µM: HCT-15
inactive: SK-MEL-28 > 50 µM | COLO 205 > 50 µM | HCC 2998 > 50 µM | OVCAR-8 > 50 µM | SF-295 > 50 µM | Malme-3M 25.8 µM | T47D > 50 µM | OVCAR-4 > 50 µM | IGROV-1 > 50 µM | HOP-92 > 50 µM | Hs-578T > 50 µM | SF-268 > 50 µM | SK-MEL-5 > 50 µM | OVCAR-5 > 50 µM | DU-145 > 50 µM | NCI-H23 > 50 µM | MDA-MB-435 > 50 µM | 786-0 > 50 µM | LOX IMVI > 50 µM | NCI-H522 > 50 µM | A498 > 50 µM | UACC-257 > 50 µM | UO-31 > 50 µM | UACC-62 > 50 µM | SK-MEL-2 > 50 µM | KM12 > 50 µM | RPMI-8226 > 50 µM | MOLT-4 > 50 µM | SF-539 > 50 µM | MDA-MB-231 > 50 µM | SNB-19 > 50 µM | OVCAR-3 > 50 µM | K562 > 50 µM | HL-60 > 50 µM | CAKI-1 > 50 µM | NCI/ADR-RES > 50 µM | NCI-H460 > 50 µM | TK-10 > 50 µM | SNB-75 > 50 µM | ACHN > 50 µM | SW-620 > 50 µM | EKVX > 50 µM | HOP-62 > 50 µM | SK-OV-3 > 50 µM | HCT-116 > 50 µM | PC-3 > 50 µM | SN12C > 50 µM | HT-29 > 50 µM | MCF7 > 50 µM | U-251 > 50 µM | CCRF-CEM > 50 µM | A549 > 50 µM | M14 > 50 µM

CC(NC(=O)C(NC(=O)OC(C)(C)C)C(C)C)C(=O)N1CCCC1C(=O)NCC(=O)NC(C(=O)NCC(=O)OCc1ccccc1)C(C)C (stereo not given) (Boc-VAPGVG-OBn; configuration not given here)
> 100 µM: HCT-15
inactive: SK-MEL-28 > 100 µM | COLO 205 > 100 µM | HCC 2998 > 100 µM | OVCAR-8 > 100 µM | SF-295 > 100 µM | Malme-3M > 100 µM | T47D > 100 µM | OVCAR-4 > 100 µM | IGROV-1 62.1 µM | HOP-92 > 100 µM | SF-268 > 100 µM | OVCAR-5 > 100 µM | DU-145 > 100 µM | MDA-N > 100 µM | NCI-H23 > 100 µM | MDA-MB-435 > 100 µM | 786-0 > 100 µM | LOX IMVI > 100 µM | NCI-H522 > 100 µM | A498 > 100 µM | UACC-257 > 100 µM | UO-31 > 100 µM | UACC-62 66.4 µM | SK-MEL-2 > 100 µM | RPMI-8226 > 100 µM | MOLT-4 > 10 µM | SF-539 > 100 µM | MDA-MB-231 > 100 µM | SNB-19 > 100 µM | OVCAR-3 > 100 µM | K562 > 100 µM | HL-60 > 100 µM | CAKI-1 > 100 µM | NCI/ADR-RES > 100 µM | NCI-H460 > 100 µM | TK-10 > 100 µM | SR > 100 µM | SNB-75 71.3 µM | ACHN > 100 µM | SW-620 > 100 µM | EKVX > 100 µM | HOP-62 > 100 µM | SK-OV-3 > 100 µM | HCT-116 > 100 µM | PC-3 > 100 µM | SN12C > 100 µM | HT-29 > 100 µM | MCF7 > 100 µM | U-251 > 100 µM | CCRF-CEM > 100 µM | M14 > 100 µM
